Measurements published in publication PMC8545225 (Nanoscale, 2021).

Test: 2D DOSY NMR diffusion measurement and hydrodynamic size
Type: physicochemical
Settings: DOSY NMR in D2O, free ligands at 289.75 K

SMILES	Diffusion coefficient ds
O=C(O)c1ccc(P(c2ccccc2)c2ccccc2)cc1 [DPPBA, 4-(diphenylphosphino)benzoic acid]	1.37 × 10^−9 m^2·s^−1
O=S(=O)([O-])c1cccc(P(c2ccccc2)c2ccccc2)c1.[Na+] [TPPMS, triphenylphosphine monosulfonate]	2.42 × 10^−10 m^2·s^−1
